In patent US6150385A, “1,3,4-thiadiazoles useful for the treatment of CMV infections” (Pharmacia & Upjohn Company, priority 1999, dated 2000):

Target: T1, HCMV polymerase (Human cytomegalovirus, UniProt P08546)
T1 construct: made in house; host or cells: SF-9 insect cells infected with recombinant baculovirus
Assay: HCMV polymerase assay (scintillation proximity assay)
Format: biochemical
Conditions: percentage of inhibition at 25 μM concentration in CMV polymerase assay
Procedure, shortened: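 Values are percent inhibition at 25 μM, measured by scintillation proximity after capture of biotinylated poly(dA)-oligo(dT) (6 nM) extended with 90 nM 3H-dTTP. Recombinant SF-9-derived enzyme reacted 30 min at 25 or 37 °C in HEPES pH 7.5/KCl/MgCl2/BSA buffer, ±2 mM CHAPS, before EDTA termination.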

T1 sequence (P08546 whole entry): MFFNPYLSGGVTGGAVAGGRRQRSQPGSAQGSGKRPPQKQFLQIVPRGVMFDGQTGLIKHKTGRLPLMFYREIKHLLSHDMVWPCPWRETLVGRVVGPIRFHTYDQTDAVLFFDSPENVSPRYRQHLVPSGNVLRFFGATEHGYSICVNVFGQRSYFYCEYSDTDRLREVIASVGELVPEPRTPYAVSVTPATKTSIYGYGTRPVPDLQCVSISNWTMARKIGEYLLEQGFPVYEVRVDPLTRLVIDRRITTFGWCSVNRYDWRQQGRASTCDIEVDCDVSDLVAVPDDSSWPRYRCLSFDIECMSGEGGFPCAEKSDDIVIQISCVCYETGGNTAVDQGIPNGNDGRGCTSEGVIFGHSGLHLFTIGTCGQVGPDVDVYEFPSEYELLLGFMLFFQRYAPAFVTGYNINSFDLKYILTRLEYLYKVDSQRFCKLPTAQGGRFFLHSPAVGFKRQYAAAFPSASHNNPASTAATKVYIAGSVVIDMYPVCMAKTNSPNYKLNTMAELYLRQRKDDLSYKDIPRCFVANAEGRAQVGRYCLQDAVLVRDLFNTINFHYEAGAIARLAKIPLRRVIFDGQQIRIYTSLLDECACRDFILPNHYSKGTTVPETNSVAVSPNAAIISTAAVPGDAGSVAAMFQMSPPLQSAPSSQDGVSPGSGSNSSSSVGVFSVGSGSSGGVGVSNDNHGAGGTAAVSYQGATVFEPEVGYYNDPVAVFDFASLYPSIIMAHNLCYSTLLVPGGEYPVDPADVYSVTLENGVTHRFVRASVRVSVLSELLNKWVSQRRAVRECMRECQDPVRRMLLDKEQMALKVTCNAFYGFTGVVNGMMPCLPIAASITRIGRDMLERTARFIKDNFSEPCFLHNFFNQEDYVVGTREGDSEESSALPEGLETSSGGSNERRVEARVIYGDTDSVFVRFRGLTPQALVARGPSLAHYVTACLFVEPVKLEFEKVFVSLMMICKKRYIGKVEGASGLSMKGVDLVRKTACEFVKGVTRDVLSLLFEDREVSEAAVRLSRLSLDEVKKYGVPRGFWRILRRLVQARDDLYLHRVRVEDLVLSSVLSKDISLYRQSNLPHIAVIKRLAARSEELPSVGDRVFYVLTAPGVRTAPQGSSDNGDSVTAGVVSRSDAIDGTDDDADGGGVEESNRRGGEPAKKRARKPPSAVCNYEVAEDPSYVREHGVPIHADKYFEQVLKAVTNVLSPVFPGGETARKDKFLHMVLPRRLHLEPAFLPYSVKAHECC

O=C(Nc1nnc(NCCc2ccccc2)s1)c1ccc(S(=O)(=O)F)cc1 [compound 472, 4-({[5-(phenethylamino)-1,3,4-thiadiazol-2-yl]amino}carbonyl)benzenesulfonyl fluoride]
% Inhib: 20.0%
